As usually defined, the IC50 is the midpoint of a concentration-inhibition curve.

Activity calls are given as the source filed them.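 How the source made its calls: active means displacement of at least 50% at 20 µM, with a fluorescence ratio check between 0.3 and a set limit; inactive means the rest.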

Here are results for twelve compounds from PubChem BioAssay AID1817 (Sanford-Burnham Center for Chemical Genomics, 2009).

The assay has as its target E3 ubiquitin-protein ligase SIAH1 (Homo sapiens) (UniProt Q8IUQ4). Put plainly: blockers of Siah-1 interaction with plectin peptide – biochemical, fluorescence polarization, rhodamine-plectin, uHTS, primary screen (AID 1817). As to conditions: Siah-1 / rhodamine-plectin peptide fluorescence polarization. (Polarisation of emitted light reports the rotation of a fluorescent probe.)

E3 ubiquitin-protein ligase SIAH1 (Homo sapiens), sequence (Q8IUQ4 whole entry, looked up): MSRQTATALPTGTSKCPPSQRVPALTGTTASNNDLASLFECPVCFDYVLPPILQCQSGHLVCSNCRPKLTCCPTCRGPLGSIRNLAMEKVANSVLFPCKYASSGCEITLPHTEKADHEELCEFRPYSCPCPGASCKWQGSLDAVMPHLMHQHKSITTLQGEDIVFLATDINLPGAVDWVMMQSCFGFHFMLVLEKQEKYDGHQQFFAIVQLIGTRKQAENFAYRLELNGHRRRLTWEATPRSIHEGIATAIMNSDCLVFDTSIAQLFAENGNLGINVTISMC

Consider `O=C1CCCC(O)=C1N=Nc1ccc(C(=O)O)cc1`, for which the IC50 was > 200 µM (inactive).
In the case of `CC12CCC(C(=O)NCc3ccc(Cl)cc3)(OC1=O)C2(C)C` (configuration not stated), the IC50 was > 200 µM (inactive).
To `Cc1ccc(CNc2ccc(O)cc2)cc1` belongs “inactive”; to `COc1ccc(CCNC(=O)CCC(=O)N2CCOc3ccc(C)cc32)cc1OC`, > 200 µM (inactive); to `Cc1cc2cc(CNC(=O)c3ccc(S(=O)(=O)N4CCCCC4)cc3)ccc2n1C`, > 200 µM (inactive).
For the compound `CC(=O)c1ccc(NC(=O)CC2Nc3cccc4cccc(c34)NC2=O)cc1` (configuration not stated), the IC50 was > 200 µM (inactive).
`CCN(CC)CCOC(=O)c1ccc(N/C=C(/C#N)c2nc(-c3ccc(OC)c(OC)c3)cs2)cc1`: the concentration for half-maximal inhibition (IC50) is 12.5 µM.
Take `CCOc1ccccc1CNc1ccc(O)cc1`: the IC50 result is “inactive”.
Consider `O=C(Nc1ccc(Cl)cc1)c1ccc(S(=O)(=O)N2CCOCC2)cc1`, for which the IC50 is > 200 µM (inactive).
As for `CCC(C)[C@H](NC(=O)N1CCn2c1nc1ccccc12)C(=O)NCCc1ccc(OC)c(OC)c1` (some centres not stated), the IC50 was > 200 µM (inactive).
In the case of `COc1ccc(CCNC(=O)c2ccc(S(=O)(=O)N(C)c3ccccc3)cc2)cc1OC`, the IC50 is > 200 µM (inactive).
Turning to `CSc1ccccc1C(=O)NC(C)c1ccc(-n2ccnc2)cc1` (configuration not stated), the IC50 is > 200 µM (inactive).
